In patent publication US20030129629A1, “Methods and compositions for the identification, assessment, prevention, and therapy of human cancers” (Millennium Pharmaceuticals, Inc., priority 2000, published 2003):

Tested on: 60 cancer cell lines (NCI 60 cancer cell line series)
Test: NCI-DTP in vitro cancer screen, sulforhodamine B (SRB) growth inhibition, 48 hour exposure
Assay type: cell-based, human
Experimental: Cancer Cell Line Preparation. Sixty cancer cell lines were obtained from the National Cancer Institute Developmental Therapeutics Program (NCI-DTP). Procedures for growing cells and testing compounds have been described previously (Scudiero et al., Cancer Res. 1988, 48:4827-4833; Stinson et al., Anticancer Res.; Myers et al., Electrophoresis 1997, 18:647-653). Cells are plated on day 0 at a density individualized for each cell line so that they will generally be sub-confluent at the end of the assay period. On day 1, a compound is added in the format for a duplicate-well, 5-dose, ten-fold interval dose response study.
No-drug, no-cell and no-growth controls are included. On day 3 the cells are processed for staining with sulforhodamine B (SRB), which reflects the amount of cell mass present at the end of a 48 hour exposure to the test agent. From dose response curves based on the SRB data, various parameters can be determined. […] More precisely, the quantity used in the calculation to be described is the potency measure −log{GI50}.
Activity database (A). […] This subset of compounds was selected from the larger 23,000 compound database available from the DTP. The compounds were selected on the basis of their known mechanism of action and chemical structure. The average potency −log{GI50} was extracted from the comma-delimited text files available through the Web at http://www.nci.nih.gov/intra/lmp/jnwbio.html. Subsequently, these −log{GI50} values were inspected manually and classified as indicating either Low, Medium or High sensitivity to each compound.

## O=C1c2c(O)ccc(O)c2C(=O)c2c(NCCNCCO)ccc(NCCNCCO)c21 [Mitoxantrone]
Breast BT-549 CL5013
  classification of cell line as Low(1), Medium(2), High(3) sensitivity to compound: 2
Breast HS-578T CL5006
  classification of cell line as Low(1), Medium(2), High(3) sensitivity to compound: 2
Breast MCF7(I) CL5001
  classification of cell line as Low(1), Medium(2), High(3) sensitivity to compound: 3
Breast MCF7/ADRr CL5002
  classification of cell line as Low(1), Medium(2), High(3) sensitivity to compound: 1
Breast MDA-MB-231 CL5005
  classification of cell line as Low(1), Medium(2), High(3) sensitivity to compound: 1
Breast MDA-MB-435 CL5011
  classification of cell line as Low(1), Medium(2), High(3) sensitivity to compound: 1
Breast MDA-N CL5012
  classification of cell line as Low(1), Medium(2), High(3) sensitivity to compound: 1
Breast T-47D CL5014
  classification of cell line as Low(1), Medium(2), High(3) sensitivity to compound: 2
CNS SF-268 CL12014
  classification of cell line as Low(1), Medium(2), High(3) sensitivity to compound: 2
CNS SF-295 CL12015
  classification of cell line as Low(1), Medium(2), High(3) sensitivity to compound: 2
CNS SF-539 CL12016
  classification of cell line as Low(1), Medium(2), High(3) sensitivity to compound: 3
CNS SNB-19 CL12002
  classification of cell line as Low(1), Medium(2), High(3) sensitivity to compound: 3
CNS SNB-75(I) CL12005
  classification of cell line as Low(1), Medium(2), High(3) sensitivity to compound: 3
CNS U251(I) CL12009
  classification of cell line as Low(1), Medium(2), High(3) sensitivity to compound: 3
Colon COLO-250 CL4010
  classification of cell line as Low(1), Medium(2), High(3) sensitivity to compound: 2
Colon HCC-2998 CL4002
  classification of cell line as Low(1), Medium(2), High(3) sensitivity to compound: 1
Colon HCT-15 CL4015
  classification of cell line as Low(1), Medium(2), High(3) sensitivity to compound: 1
Colon HCT-116 CL4003
  classification of cell line as Low(1), Medium(2), High(3) sensitivity to compound: 2
Colon HT29(I) CL4001
  classification of cell line as Low(1), Medium(2), High(3) sensitivity to compound: 1
Colon KM12 CL4017
  classification of cell line as Low(1), Medium(2), High(3) sensitivity to compound: 1
Colon SW-620 CL4009
  classification of cell line as Low(1), Medium(2), High(3) sensitivity to compound: 2
Leukemia CCRF-CEM(I) CL7003
  classification of cell line as Low(1), Medium(2), High(3) sensitivity to compound: 3
Leukemia HL-60(I) CL7008
  classification of cell line as Low(1), Medium(2), High(3) sensitivity to compound: 3
Leukemia K562(I) CL7005
  classification of cell line as Low(1), Medium(2), High(3) sensitivity to compound: 2
Leukemia MOLT-4 CL7006
  classification of cell line as Low(1), Medium(2), High(3) sensitivity to compound: 3
Leukemia RPMI-8226(I) CL7010
  classification of cell line as Low(1), Medium(2), High(3) sensitivity to compound: 2
Leukemia SR CL7019
  classification of cell line as Low(1), Medium(2), High(3) sensitivity to compound: 3
Melanoma LOX IMVI CL10001
  classification of cell line as Low(1), Medium(2), High(3) sensitivity to compound: 2
Melanoma M14 CL10014
  classification of cell line as Low(1), Medium(2), High(3) sensitivity to compound: 2
Melanoma MALME-3M CL10002
  classification of cell line as Low(1), Medium(2), High(3) sensitivity to compound: 2
Melanoma SK-MEL-2 CL10005
  classification of cell line as Low(1), Medium(2), High(3) sensitivity to compound: 1
Melanoma SK-MEL-5 CL10007
  classification of cell line as Low(1), Medium(2), High(3) sensitivity to compound: 2
Melanoma SK-MEL-28 CL10008
  classification of cell line as Low(1), Medium(2), High(3) sensitivity to compound: 1
Melanoma UACC-62 CL10020
  classification of cell line as Low(1), Medium(2), High(3) sensitivity to compound: 2
Melanoma UACC-257 CL10021
  classification of cell line as Low(1), Medium(2), High(3) sensitivity to compound: 1
NSCLC A549/ATCC CL1004
  classification of cell line as Low(1), Medium(2), High(3) sensitivity to compound: 3
NSCLC EKVX CL1008
  classification of cell line as Low(1), Medium(2), High(3) sensitivity to compound: 1
NSCLC HOP-62 CL1026
  classification of cell line as Low(1), Medium(2), High(3) sensitivity to compound: 3
NSCLC HOP-92 CL1029
  classification of cell line as Low(1), Medium(2), High(3) sensitivity to compound: 3
NSCLC NCI-H23(I) CL1001
  sensitivity classification Low(1)/Medium(2)/High(3): 2
NSCLC NCI-H226 CL1013
  classification of cell line as Low(1), Medium(2), High(3) sensitivity to compound: 3
NSCLC NCI-H332M CL1017
  sensitivity classification Low(1)/Medium(2)/High(3): 1
NSCLC NCI-H460 CL1021
  sensitivity classification Low(1)/Medium(2)/High(3): 3
NSCLC NCI-H522 CL1003
  sensitivity classification Low(1)/Medium(2)/High(3): 2
Ovarian IGROV1 CL6010
  sensitivity classification Low(1)/Medium(2)/High(3): 2
Ovarian OVCAR-3 CL6001
  sensitivity classification Low(1)/Medium(2)/High(3): 1
Ovarian OVCAR-4 CL6002
  sensitivity classification Low(1)/Medium(2)/High(3): 1
Ovarian OVCAR-5 CL6003
  sensitivity classification Low(1)/Medium(2)/High(3): 1
Ovarian OVCAR-8 CL6005
  sensitivity classification Low(1)/Medium(2)/High(3): 2
Ovarian SK-OV-3 CL6011
  sensitivity classification Low(1)/Medium(2)/High(3): 2
Prostate DU-145 CL11003
  sensitivity classification Low(1)/Medium(2)/High(3): 2
Prostate PC-3(I) CL11001
  sensitivity classification Low(1)/Medium(2)/High(3): 2
Renal 786-0 CL9018
  sensitivity classification Low(1)/Medium(2)/High(3): 2
Renal A498 CL9013
  sensitivity classification Low(1)/Medium(2)/High(3): 2
Renal ACHN CL9023
  sensitivity classification Low(1)/Medium(2)/High(3): 3
Renal CAKI-1 CL9015
  sensitivity classification Low(1)/Medium(2)/High(3): 3
Renal RXF-393 CL9016
  sensitivity classification Low(1)/Medium(2)/High(3): 2
Renal SN12C CL9008
  sensitivity classification Low(1)/Medium(2)/High(3): 3
Renal TK10 CL9024
  sensitivity classification Low(1)/Medium(2)/High(3): 1
Renal UO-31 CL9004
  sensitivity classification Low(1)/Medium(2)/High(3): 1
